Results published in patent publication US9572807B2, “Protocols for treatment of major depressive disorder (MDD)” (NEURALSTEM, INC., priority 2014, dated 2017).

Key:
[1] = tested on: patients with symptomatic MDD; experiment: Symptoms of Depression Questionnaire (SDQ), Phase 1B study; format: in vivo, human; details: for Cohen's d value, SDQ (ANCOVA): all test groups (n=18) vs placebo (n=6)
Experimental: (§1) A double-blind, placebo-controlled, multiple-ascending-dose study employing the compound of formula (1) was performed in patients with symptomatic MDD. Twenty-four subjects were recruited, with their diagnosis and illness severity confirmed through an independent, remote SAFER interview (Targum, S. D., et al., CNS Neurosci. Ther. (2008) 14:2-9) from the Massachusetts General Hospital (MGH) Clinical Trials Network and Institute (CTNI) raters. Each patient underwent a screening for eligibility (Day −37 to Day −6 or −3) and eligible patients were admitted into the unit on Day −5 to complete their wash-out and be reconfirmed for eligibility and for baseline assessments. The patients received daily dosing of formula (1) or placebo for 28 days starting on Day 1 and were followed for safety, pharmacokinetics (PK) and pharmacodynamics (PD) until discharge. At the conclusion of in-house dosing (Day 28), patients remained in the unit for up to 3 additional days, at the psychiatrist's discretion. On Day 35 (±3), Day 42 (±3), Day 49 (±3) and Day 70 (±3) outpatient follow-up visits took place. Patients returned to the unit for extensive follow-up on Day 56 (±3) and Day 84 (±3) (End-of-study).
(§2) The subjects were randomized into four groups of 6 patients each to receive 40 mg of formula (1) per dose administered orally in gelatin capsules once daily, twice daily or three times daily to provide 40 or 80 or 120 mg daily of formula (1) or placebo for 28 days. Each cohort included at least 3 female subjects. In this example, qEEG was used to characterize pharmacodynamic effects.
(§3) In this example, the results of the study of Example 1 were evaluated by the efficacy assessments that included the Montgomery-Asberg Depression Rating Scale (MADRS), the Clinician Global Impression-Improvement (CGI-I), the Symptoms of Depression Questionnaire (SDQ) and the Cognitive and Physical Functioning Questionnaire (CPFQ). […] These improvements persisted over time during the follow-up for MADRS, SDQ and CPFQ.
(§4) Baseline values were adjusted for initial differences and the results for the placebo group (n=6) and the tested groups (n=18) were collapsed. The sizes of the effects were estimated as Cohen's d group mean differences where d=0.20 indicates only a small difference, d=0.50 indicates a medium difference and d=0.80 indicates a large difference. Cohen's d values are described in Cohen, J. (1988) Statistical Power Analysis for the Behavioral Sciences (2nd ed.), Lawrence Erlbaum Associates. D values are used when the scale of a dependent variable is not inherently meaningful, the difference between means are considered in standardized units. That is, effect size is measured in terms of the number of standard deviations by which the means differ. Two commonly used measures are Hedges' g and Cohen's d. Both of these measures consist of the difference between means divided by the standard deviation. They differ only in that Hedges' g uses the version of the standard deviation formula in which division is by N−1, whereas Cohen's d uses the version in which division is by N.
(§5) Covariance is a measure of how much two variables change together and how strong the relationship is between them (Lenth, R. V., The American Statistician (2001) 55:187-193). Analysis of covariance (ANCOVA) is a general linear model which blends analysis of variance (ANOVA) and regression. ANCOVA evaluates whether population means of a dependent variable (DV) are equal across levels of a categorical independent variable (IV), while statistically controlling for the effects of other continuous variables that are not of primary interest, known as covariates (CV). Therefore, when performing ANCOVA, the DV means are adjusted to what they would be if all groups were equal on the CV. In the CGI-I assay, Day 7 was used as the baseline value; in the remaining assays, Day 0 was used as baseline.

[2] = tested on: patients with symptomatic MDD; experiment: Clinician Global Impression-Improvement Scale (CGI-I), Phase 1B study; format: in vivo, human; details: for Cohen's d value, CGI-I (ANCOVA): all test groups (n=18) vs placebo (n=6), Day 7 as baseline
Experimental: as §1, §2, §3, §4, §5

[3] = Day 14, 1x = 40 mg/day oral (n=6)
[4] = Day 14, 2x = 80 mg/day oral (n=6)
[5] = Day 14, 3x = 120 mg/day oral (n=6)
[6] = Day 14, all three dose groups pooled (n=18)
[7] = Day 56 (follow-up after 28 days dosing), 1x = 40 mg/day oral
[8] = Day 56 (follow-up after 28 days dosing), 2x = 80 mg/day oral
[9] = Day 56 (follow-up after 28 days dosing), 3x = 120 mg/day oral
[10] = Day 56 (follow-up after 28 days dosing), all three dose groups pooled (n=18)
[11] = Day 84 (follow-up after 28 days dosing), 1x = 40 mg/day oral
[12] = Day 84 (follow-up after 28 days dosing), 2x = 80 mg/day oral
[13] = Day 84 (follow-up after 28 days dosing), 3x = 120 mg/day oral
[14] = Day 84 (follow-up after 28 days dosing), all three dose groups pooled

Structure (SMILES): CC(C)CCNc1ncccc1C(=O)N1CCN(Cc2ccccc2)CC1 [formula (1)]
- SDQ score ([1]; 40 mg/day, FIG. 3, placebo (n=2) 3.1): 2.5
- SDQ score ([1]; 80 mg/day, FIG. 3, controls (n=2) 3.5): 2.7
- SDQ score versus controls ([1]; 120 mg/day, at 28 days, FIG. 3): slightly higher than controls
- SDQ Means [1, 3]: 3.1174
- SDQ Means [1, 4]: 2.8485
- SDQ Means [1, 5]: 2.822
- SDQ Means [1, 6]: 2.9293
- SDQ Means ([1]; Day 28, 1x = 40 mg/day oral (n=6)): 2.5795
- SDQ Means ([1]; Day 28, 2x = 80 mg/day oral (n=6)): 2.6856
- SDQ Means ([1]; Day 28, 3x = 120 mg/day oral (n=6)): 2.6439
- SDQ Means ([1]; Day 28, all three dose groups pooled (n=18)): 2.6364
- Cohen's d value, SDQ (ANCOVA) ([1]; Day 30): 0.90
- SDQ Means [1, 7]: 2.6023
- SDQ Means [1, 8]: 2.3371
- SDQ Means [1, 9]: 2.5909
- SDQ Means [1, 10]: 2.5101
- SDQ Means [1, 11]: 2.6364
- SDQ Means [1, 12]: 2.4508
- SDQ Means [1, 13]: 2.4318
- SDQ Means [1, 14]: 2.5107
- Cohen's d value, SDQ (ANCOVA) ([1]; Day 85): 1.10
- SDQ Means ([1]; Day −5 (baseline before dosing), 1x = 40 mg/day group): 3.4508
- SDQ Means ([1]; Day −5 (baseline before dosing), 2x = 80 mg/day group): 3.2652
- SDQ Means ([1]; Day −5 (baseline before dosing), 3x = 120 mg/day group): 3.4242
- SDQ Means ([1]; Day −5 (baseline before dosing), all three dose groups pooled (n=18)): 3.3801
- Cohen's d value, CGI-I (ANCOVA) ([2]; 70 days): 1.13
- CGI-I Means ([2]; Day 7, 1x = 40 mg/day oral (n=6)): 3.5
- CGI-I Means ([2]; Day 7, 2x = 80 mg/day oral (n=6)): 3.8333
- CGI-I Means ([2]; Day 7, 3x = 120 mg/day oral (n=6)): 3.6667
- CGI-I Means ([2]; Day 7, all three dose groups pooled (n=18)): 3.6667
- CGI-I Means [2, 3]: 3
- CGI-I Means [2, 4]: 3.3333
- CGI-I Means [2, 5]: 3.1667
- CGI-I Means [2, 6]: 3.1667
- CGI-I Means ([2]; Day 21, 1x = 40 mg/day oral (n=6)): 2.8333
- CGI-I Means ([2]; Day 21, 2x = 80 mg/day oral (n=6)): 3.3333
- CGI-I Means ([2]; Day 21, 3x = 120 mg/day oral (n=6)): 3.3333
- CGI-I Means ([2]; Day 21, all three dose groups pooled (n=18)): 3.1667
- CGI-I value ([2]; Day 28, 40 mg/day, FIG. 1, placebo subset (n=2) 3.5): approximately 2.5
- CGI-I value ([2]; Day 28, 80 mg/day (40 mg two times daily), FIG. 1): 3
- CGI-I value versus controls ([2]; Day 28, 120 mg/day, FIG. 1): no difference from controls
- CGI-I Means ([2]; Day 29, 1x = 40 mg/day oral (n=6)): 2.5
- CGI-I Means ([2]; Day 29, 2x = 80 mg/day oral (n=6)): 2.8333
- CGI-I Means ([2]; Day 29, 3x = 120 mg/day oral (n=6)): 3.1667
- CGI-I Means ([2]; Day 29, all three dose groups pooled (n=18)): 2.8333
- Cohen's d value, CGI-I (ANCOVA) ([2]; Day 30): 0.57
- CGI-I Means ([2]; Day 35 (follow-up after 28 days dosing), 1x = 40 mg/day oral): 3.8333
- CGI-I Means ([2]; Day 35 (follow-up after 28 days dosing), 2x = 80 mg/day oral): 2.8333
- CGI-I Means ([2]; Day 35 (follow-up after 28 days dosing), 3x = 120 mg/day oral): 3
- CGI-I Means ([2]; Day 35 (follow-up after 28 days dosing), all three dose groups pooled (n=18)): 3.2222
- CGI-I Means ([2]; Day 42 (follow-up after 28 days dosing), 1x = 40 mg/day oral): 3.8333
- CGI-I Means ([2]; Day 42 (follow-up after 28 days dosing), 2x = 80 mg/day oral): 3
- CGI-I Means ([2]; Day 42 (follow-up after 28 days dosing), 3x = 120 mg/day oral): 3
- CGI-I Means ([2]; Day 42 (follow-up after 28 days dosing), all three dose groups pooled (n=18)): 3.2778
- CGI-I Means ([2]; Day 49 (follow-up after 28 days dosing), 1x = 40 mg/day oral): 3.5
- CGI-I Means ([2]; Day 49 (follow-up after 28 days dosing), 2x = 80 mg/day oral): 3.3333
- CGI-I Means ([2]; Day 49 (follow-up after 28 days dosing), 3x = 120 mg/day oral): 2.8333
- CGI-I Means ([2]; Day 49 (follow-up after 28 days dosing), all three dose groups pooled (n=18)): 3.2222
- CGI-I Means [2, 7]: 3
- CGI-I Means [2, 8]: 3
- CGI-I Means [2, 9]: 2.1667
- CGI-I Means [2, 10]: 2.7222
- CGI-I Means ([2]; Day 70 (follow-up after 28 days dosing), 1x = 40 mg/day oral): 3.6667
- CGI-I Means ([2]; Day 70 (follow-up after 28 days dosing), 2x = 80 mg/day oral): 3.5
- CGI-I Means ([2]; Day 70 (follow-up after 28 days dosing), 3x = 120 mg/day oral): 3.3333
- CGI-I Means ([2]; Day 70 (follow-up after 28 days dosing), all three dose groups pooled (n=18)): 3.5
- CGI-I Means [2, 11]: 3.3333
- CGI-I Means [2, 12]: 2.6667
- CGI-I Means [2, 13]: 2
- CGI-I Means [2, 14]: 2.7059
